Measured values taken from US20100160356A1, “NOVEL CYCLOBUTYL COMPOUNDS AS KINASE INHIBITORS” (priority 2006, published 2010).
pIC50: −log10 of the molar value. Values after ≈ are worked out from the molar mass of the structure shown.

Legend:
[1] = Solubility in phosphate buffer by the shake flask method; type: physicochemical; conditions: 37 °C, pH 7, aqueous buffer, thermodynamic from solid, pH 7.0, 37° C., 24 h shake flask
Protocol: The procedure described in Glomme et al. (J. Pharm. Sci. 94(1): 1-16, 2005) is followed. The concentration determination is carried out by HPLC with UV detection against a standard solution.
Buffer: 3.954 g of sodium dihydrogenphosphate monohydrate 6.024 g of sodium chloride +950 ml of ultrapure water. Setting of pH 7.0 using 0.1 M NaOH or 0.1 M HCl.
The samples were shaken at 37° C. and 450 rpm for 24 h. After about 7 h, the pH of the samples was checked and adjusted if necessary. It was checked whether the sample was still present in excess. Just before the end of the 24 h shaking time, the samples were again checked for pH and a precipitate.
• Ultrapure water plant: MilliQ gradient, Millipore, unit: F3PN37462D • Shaker: TiMix control, Bühler • Incubation hood: TH 15, Bühler • pH meter: 766 Calimatic Knick instrument: pH 1 • pH electrode: InLab 423 Mettler • HPLC: column: LiChroCart 125-4 LiChrospher 100 RP-18 • flow rate: 1.000 ml/min • eluents: • eluent A: 2 ml of diethylamine, for synthesis+1000 ml of methanol, LiChrosolv • eluent B: 5 g of ammonium acetate, for analysis+5 ml of methanol, LiChrosolv+995 ml of ultrapure water

[2] = target: IGF1R (Homo sapiens, UniProt P08069); assay: Inhibition of IGF1R (flashplate assay); type: biochemical; conditions: flashplate method
Protocol: (§1) The test plates used are 96-well flashplate microtitre plates from Perkin Elmer (USA). The components of the kinase reaction are pipetted into the assay plate. The IGF1R kinase is incubated for 1 hr. with radioactively labelled ^33P-ATP in the presence and absence of test substances in a total volume of 100 μl at room temperature together with biotinylated poly(Glu, Tyr)4:1. The reaction is terminated using 25 μl of a 200 mM EDTA solution. After incubation for a further 30 min at room temperature, the supernatants are removed by suction, and the wells are washed three times with 100 μl of 0.9% NaCl solution each time. The radioactivity is measured using a Topcount scintillation counter (PerkinElmer, USA). IC50 values are calculated using the RS1 computer program.

[3] = target: T1, FAK (focal adhesion kinase) (Homo sapiens, UniProt Q05397); assay: Inhibition of FAK (ELISA assay), FAK phosphorylation in cells; type: cell-based; conditions: human cells with FAK amplification
T1 construct: endogenous in cells; host or cells: Calu-6 or HT-29
Protocol: Activated FAK promotes the invasive growth of tumour cells and inhibits anoikis.
The amount of phosphorylated FAK is determined by a specific capture ELISA or an analogous LUMINEX assay. FAK from cell lysates is bound to a 96-well ELISA plate or LUMINEX beads by means of a specific antibody (“capturing”), and the tyrosine phosphorylation is detected using a biotin-labelled anti-phosphotyrosine antibody and a streptavidin-peroxidase conjugate by a chemiluminescence method or by means of a fluorescence-labelled anti-phosphotyrosine antibody.
For determination of the activity of kinase inhibitors, cells are pretreated with increasing concentrations of these compounds for 45 min, and the FAK phosphorylation is then determined. As internal control, a concentration series of a reference inhibitor is measured.

[4] = target: VEGF-2 (Homo sapiens, UniProt P35968); assay: Inhibition of VEGF-2 (flashplate assay); type: biochemical; conditions: flashplate method
Protocol: as §1, with “are 384-well” for “are 96-well”, “The VEGF-2” for “The IGF1R”, “for 3” for “for 1”

[5] = target: TIE2 (Homo sapiens, UniProt Q02763); assay: Inhibition of TIE2 (flashplate assay); type: biochemical; conditions: flashplate method
Protocol: B4: inhibition of T1E2 (Flashplate Assay)
as §1, with “are 384-well” for “are 96-well”, “The TIE2” for “The IGF1R”, “for 3” for “for 1”

[6] = target: PDGFRβ (Homo sapiens, UniProt P09619); assay: Inhibition of PDGFRβ (flashplate assay); type: biochemical; conditions: flashplate method
Protocol: as §1, with “The PDGFRβ” for “The IGF1R”, “for 3” for “for 1”, “temperature (here autophosphorylation of the kinase).” for “temperature together with biotinylated poly(Glu, Tyr)4:1.”, “using 150” for “using 25”, “a 60” for “a 200”, “with 200” for “with 100”

[7] = target: T2, TGFβR1 (Homo sapiens, UniProt P36897); assay: Inhibition of TGFβR1 (flashplate assay); type: biochemical; conditions: flashplate method
T2 sequence (P36897 34-503): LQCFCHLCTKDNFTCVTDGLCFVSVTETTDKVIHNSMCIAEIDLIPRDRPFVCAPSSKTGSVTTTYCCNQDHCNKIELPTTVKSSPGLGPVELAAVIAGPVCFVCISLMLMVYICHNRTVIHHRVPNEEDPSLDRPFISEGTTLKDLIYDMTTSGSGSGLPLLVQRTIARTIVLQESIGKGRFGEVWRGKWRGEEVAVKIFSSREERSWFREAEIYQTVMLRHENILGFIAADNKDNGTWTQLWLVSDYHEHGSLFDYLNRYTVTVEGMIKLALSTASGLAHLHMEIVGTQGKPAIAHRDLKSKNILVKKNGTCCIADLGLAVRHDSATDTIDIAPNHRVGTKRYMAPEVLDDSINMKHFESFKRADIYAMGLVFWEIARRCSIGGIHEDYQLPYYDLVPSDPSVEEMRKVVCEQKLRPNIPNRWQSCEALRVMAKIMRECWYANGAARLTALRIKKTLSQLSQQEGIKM
Protocol: The test is carried out as described in Example B1b for IGF1R. A biotinylated is added to the TGFβR1 kinase.
The kinase assay is carried out as a 384-well flashplate assay.
The components of the kinase reaction are pipetted into the assay plate. The TGFβR1 kinase is incubated for 45 min with radioactively labelled ^33P-ATP in the presence and absence of test substances together with biotinylated substrate in a total volume of 35 μl. The reaction is terminated using 25 μl of 200 mM EDTA solution, removed by suction after 30 min at room temperature, and the wells are washed with three times with 100 μl of 0.9% NaCl solution each time. The radioactivity is measured using a Topcount scintillation counter (PerkinElmer, USA). IC50 values are calculated using the RS1 computer program.

[8] = target: T3, IGF1 receptor (IGF1R) (Homo sapiens, UniProt P08069); assay: Inhibition of IGF1R (ELISA assay), IGF1-stimulated autophosphorylation in cells; type: cell-based; conditions: human tumour cells stimulated with IGF1, read-out: IC50 IGF (ELISA)
T3 construct: endogenous in cells; host or cells: MCF-7 or Calu-6
Protocol: The stimulation induces an autophosphorylation of tyrosine residues in the cytoplasmatic IGF1R domain, which triggers signal transduction cascades, which result in inhibition of apoptosis and proliferation of the cells.
The amount of phosphorylated IGF1R is determined by a receptor-specific capture ELISA or an analogous LUMINEX assay. The IGF1R from cell lysates is bound to a 96-well ELISA plate or LUMINEX beads by means of a specific antibody (“capturing”), and the tyrosine phosphorylation is detected using a biotin-labelled anti-phosphotyrosine antibody and a streptavidin-peroxidase conjugate by a chemiluminescence method or by means of a fluorescence-labelled anti-phosphotyrosine antibody.
For determination of the activity of kinase inhibitors, cells are pretreated with increasing concentrations of these compounds for 45 min and subsequently stimulated using IGF1 for 5 min. As internal control, the biological activity of the ligand IGF1 is checked, and a concentration series of an IGF1R reference inhibitor is measured.

Chain of PDGFRβ (P09619 33-1106, species assumed): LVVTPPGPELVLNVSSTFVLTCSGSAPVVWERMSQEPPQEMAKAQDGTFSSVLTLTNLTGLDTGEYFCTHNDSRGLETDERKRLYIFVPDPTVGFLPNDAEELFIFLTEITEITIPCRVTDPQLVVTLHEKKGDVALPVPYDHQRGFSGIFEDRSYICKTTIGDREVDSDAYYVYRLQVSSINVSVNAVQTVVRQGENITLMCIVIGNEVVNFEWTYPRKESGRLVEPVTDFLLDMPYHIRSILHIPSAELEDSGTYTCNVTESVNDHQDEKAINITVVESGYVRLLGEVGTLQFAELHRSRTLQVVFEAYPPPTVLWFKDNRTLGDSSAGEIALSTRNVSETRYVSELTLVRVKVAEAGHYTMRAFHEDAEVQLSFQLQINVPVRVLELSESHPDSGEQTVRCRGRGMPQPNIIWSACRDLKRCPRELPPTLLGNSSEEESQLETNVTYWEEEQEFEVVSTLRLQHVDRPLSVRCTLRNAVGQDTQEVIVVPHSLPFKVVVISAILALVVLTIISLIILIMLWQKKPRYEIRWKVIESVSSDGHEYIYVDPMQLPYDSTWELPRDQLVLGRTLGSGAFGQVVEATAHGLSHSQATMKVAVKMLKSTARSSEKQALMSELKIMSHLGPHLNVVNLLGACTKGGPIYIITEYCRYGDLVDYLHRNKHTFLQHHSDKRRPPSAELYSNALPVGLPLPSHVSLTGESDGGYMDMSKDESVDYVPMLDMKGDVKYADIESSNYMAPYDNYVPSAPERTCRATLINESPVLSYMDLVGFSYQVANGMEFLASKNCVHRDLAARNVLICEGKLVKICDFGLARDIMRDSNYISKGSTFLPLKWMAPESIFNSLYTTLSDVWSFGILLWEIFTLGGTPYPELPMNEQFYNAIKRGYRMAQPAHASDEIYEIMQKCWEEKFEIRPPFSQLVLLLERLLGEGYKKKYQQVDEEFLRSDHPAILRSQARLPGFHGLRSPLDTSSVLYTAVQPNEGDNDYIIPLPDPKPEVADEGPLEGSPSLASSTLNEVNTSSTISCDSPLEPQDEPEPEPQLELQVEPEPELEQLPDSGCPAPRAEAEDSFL
Chain of VEGF-2 (P35968 20-1356): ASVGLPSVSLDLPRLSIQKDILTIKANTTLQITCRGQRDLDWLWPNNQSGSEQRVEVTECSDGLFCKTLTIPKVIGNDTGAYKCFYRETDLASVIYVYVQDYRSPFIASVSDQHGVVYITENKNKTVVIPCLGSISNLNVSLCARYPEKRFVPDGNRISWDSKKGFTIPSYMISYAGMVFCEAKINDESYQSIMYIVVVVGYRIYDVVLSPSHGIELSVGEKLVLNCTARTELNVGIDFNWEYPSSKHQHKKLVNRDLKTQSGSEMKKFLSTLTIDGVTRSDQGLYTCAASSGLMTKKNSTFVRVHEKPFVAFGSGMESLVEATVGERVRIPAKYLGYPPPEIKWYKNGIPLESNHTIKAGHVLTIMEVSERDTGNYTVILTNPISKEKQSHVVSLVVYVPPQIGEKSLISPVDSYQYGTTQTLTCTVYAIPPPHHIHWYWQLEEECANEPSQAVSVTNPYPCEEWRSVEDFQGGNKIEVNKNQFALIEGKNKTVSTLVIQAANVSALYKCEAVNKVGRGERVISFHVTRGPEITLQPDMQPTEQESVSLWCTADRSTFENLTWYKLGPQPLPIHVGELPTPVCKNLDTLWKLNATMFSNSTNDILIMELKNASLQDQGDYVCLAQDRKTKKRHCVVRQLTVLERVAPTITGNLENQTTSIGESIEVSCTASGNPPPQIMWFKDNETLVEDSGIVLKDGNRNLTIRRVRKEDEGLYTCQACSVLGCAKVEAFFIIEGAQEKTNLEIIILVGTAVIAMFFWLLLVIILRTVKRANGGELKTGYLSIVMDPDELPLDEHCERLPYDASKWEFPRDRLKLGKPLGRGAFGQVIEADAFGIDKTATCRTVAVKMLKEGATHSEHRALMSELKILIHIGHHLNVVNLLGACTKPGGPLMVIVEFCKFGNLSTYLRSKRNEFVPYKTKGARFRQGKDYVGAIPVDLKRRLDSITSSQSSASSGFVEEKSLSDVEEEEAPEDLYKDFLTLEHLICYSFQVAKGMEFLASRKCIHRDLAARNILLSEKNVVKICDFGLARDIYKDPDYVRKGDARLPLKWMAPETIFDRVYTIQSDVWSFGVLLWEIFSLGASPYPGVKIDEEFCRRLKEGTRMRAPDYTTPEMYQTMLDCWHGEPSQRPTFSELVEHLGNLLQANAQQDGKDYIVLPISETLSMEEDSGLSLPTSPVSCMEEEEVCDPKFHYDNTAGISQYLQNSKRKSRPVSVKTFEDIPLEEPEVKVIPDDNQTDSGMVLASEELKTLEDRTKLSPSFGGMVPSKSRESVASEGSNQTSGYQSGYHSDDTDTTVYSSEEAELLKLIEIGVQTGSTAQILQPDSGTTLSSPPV
T3 sequence (P08069 31-1367): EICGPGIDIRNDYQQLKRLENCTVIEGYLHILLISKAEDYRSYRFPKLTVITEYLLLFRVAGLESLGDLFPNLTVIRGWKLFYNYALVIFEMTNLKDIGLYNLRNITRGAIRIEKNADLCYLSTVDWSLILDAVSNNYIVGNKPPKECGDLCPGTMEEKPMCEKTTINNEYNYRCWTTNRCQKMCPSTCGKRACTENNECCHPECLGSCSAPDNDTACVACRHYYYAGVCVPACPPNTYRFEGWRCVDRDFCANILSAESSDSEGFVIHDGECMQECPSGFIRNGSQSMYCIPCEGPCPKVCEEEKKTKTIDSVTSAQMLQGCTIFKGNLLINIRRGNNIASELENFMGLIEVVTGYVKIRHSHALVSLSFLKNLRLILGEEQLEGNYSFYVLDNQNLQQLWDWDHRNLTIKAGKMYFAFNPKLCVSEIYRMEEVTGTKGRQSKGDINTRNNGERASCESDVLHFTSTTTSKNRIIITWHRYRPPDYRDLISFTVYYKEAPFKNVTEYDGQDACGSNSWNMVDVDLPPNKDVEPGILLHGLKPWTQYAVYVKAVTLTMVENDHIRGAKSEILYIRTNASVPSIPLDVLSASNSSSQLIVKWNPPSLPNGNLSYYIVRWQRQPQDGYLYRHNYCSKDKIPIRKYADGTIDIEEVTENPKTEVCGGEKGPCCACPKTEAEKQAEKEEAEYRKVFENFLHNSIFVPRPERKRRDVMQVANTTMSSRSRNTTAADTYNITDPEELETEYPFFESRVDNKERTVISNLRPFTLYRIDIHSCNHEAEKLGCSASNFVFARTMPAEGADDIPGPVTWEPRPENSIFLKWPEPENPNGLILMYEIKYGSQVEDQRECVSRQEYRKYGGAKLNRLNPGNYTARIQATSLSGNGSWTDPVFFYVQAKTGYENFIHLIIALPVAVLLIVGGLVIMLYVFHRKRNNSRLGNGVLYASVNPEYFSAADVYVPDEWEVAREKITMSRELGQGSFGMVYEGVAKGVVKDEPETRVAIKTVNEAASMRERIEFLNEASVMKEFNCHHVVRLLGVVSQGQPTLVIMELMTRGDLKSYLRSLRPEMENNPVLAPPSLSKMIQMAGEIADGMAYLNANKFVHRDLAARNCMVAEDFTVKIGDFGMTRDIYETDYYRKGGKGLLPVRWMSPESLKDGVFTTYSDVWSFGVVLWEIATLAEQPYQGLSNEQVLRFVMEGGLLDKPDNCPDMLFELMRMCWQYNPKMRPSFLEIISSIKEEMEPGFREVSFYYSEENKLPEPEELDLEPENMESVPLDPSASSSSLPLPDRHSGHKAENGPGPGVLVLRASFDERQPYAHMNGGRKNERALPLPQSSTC
Chain of IGF1R (P08069 31-1367, species assumed): as the sequence (P08069 31-1367) above
Chain of TIE2 (Q02763 23-1124, species assumed): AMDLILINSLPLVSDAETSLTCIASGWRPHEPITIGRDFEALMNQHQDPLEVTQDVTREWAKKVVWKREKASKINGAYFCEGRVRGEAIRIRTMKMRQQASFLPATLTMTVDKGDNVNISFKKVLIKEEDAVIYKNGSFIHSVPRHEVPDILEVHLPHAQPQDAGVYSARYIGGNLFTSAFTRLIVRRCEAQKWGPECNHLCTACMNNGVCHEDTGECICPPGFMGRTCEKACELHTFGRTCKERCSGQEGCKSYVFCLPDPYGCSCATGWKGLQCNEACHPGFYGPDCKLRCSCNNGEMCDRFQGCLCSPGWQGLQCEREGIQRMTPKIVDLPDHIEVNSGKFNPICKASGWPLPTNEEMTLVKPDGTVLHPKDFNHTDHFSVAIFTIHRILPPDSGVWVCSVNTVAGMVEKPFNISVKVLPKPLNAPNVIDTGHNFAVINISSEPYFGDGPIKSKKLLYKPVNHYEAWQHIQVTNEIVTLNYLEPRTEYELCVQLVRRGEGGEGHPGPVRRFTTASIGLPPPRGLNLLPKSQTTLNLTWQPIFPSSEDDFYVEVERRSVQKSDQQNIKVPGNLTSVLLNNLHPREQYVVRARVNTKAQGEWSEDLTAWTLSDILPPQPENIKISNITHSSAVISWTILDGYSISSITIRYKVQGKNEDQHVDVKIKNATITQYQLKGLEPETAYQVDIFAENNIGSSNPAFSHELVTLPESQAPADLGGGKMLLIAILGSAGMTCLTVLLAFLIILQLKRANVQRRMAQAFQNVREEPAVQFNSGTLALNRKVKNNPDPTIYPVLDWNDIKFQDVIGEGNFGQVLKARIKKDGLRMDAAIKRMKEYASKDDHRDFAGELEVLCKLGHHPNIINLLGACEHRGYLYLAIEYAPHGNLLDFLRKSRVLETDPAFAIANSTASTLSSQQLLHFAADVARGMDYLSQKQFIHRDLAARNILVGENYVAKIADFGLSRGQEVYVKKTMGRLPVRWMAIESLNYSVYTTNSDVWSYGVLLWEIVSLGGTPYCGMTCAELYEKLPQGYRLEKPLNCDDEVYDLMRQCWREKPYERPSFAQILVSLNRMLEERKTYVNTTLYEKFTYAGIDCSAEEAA

SMILES | solubility at 24 h [1] [µg/mL] | pIC50 [2] | pIC50 [3] | pIC50 [4] | pIC50 [5] | pIC50 [6] | pIC50 [7] | melting point | pIC50 [8]
Nc1ncnc2c1c(-c1cccc(OCc3ccccc3)c1)cn2C1CC(CN2C(=O)c3ccccc3C2=O)C1 (stereo not drawn) [2-{3-[4-Amino-5-(3-benzyloxyphenyl)pyrrolo[2,3-d]pyrimidin-7-yl]cyclobutylmethyl}isoindole-1,3-dione, reference compound] | < 1 | – | – | – | – | – | – | – | –
Nc1ncnc2c1c(-c1cccc(OCc3ccccc3)c1)cn2C1CC(CN2CCCC2)C1 (stereo not drawn) [5-(3-Benzyloxyphenyl)-7-(3-pyrrolidin-1-ylmethyl-cyclobutyl)-7H-pyrrolo[2,3-d]pyrimidin-4-ylamine, reference compound] | 53 (≈ 117 µM) | – | – | – | – | – | – | – | –
NCC1CC(n2cc(-c3cccc(OCc4ccccc4)c3)c3c(N)ncnc32)C1 (stereo not drawn) [7-(3-Aminomethylcyclobutyl)-5-(3-benzyloxyphenyl)-7H-pyrrolo[2,3-d]pyrimidin-4-ylamine, reference compound] | 233 (≈ 583 µM) | – | – | – | – | – | – | – | –
NCC1CC(n2cc(-c3ccccc3)c3c(N)ncnc32)C1 (stereo not drawn) [Compound 4] | – | 5.13 | 5.96 | 5.96 | 5.13 | 6.04 | 5.55 | 84 to 86 °C | –
NCC1CC(n2cc(-c3ccc(N)cc3)c3c(N)ncnc32)C1 (stereo not drawn) [Compound 5] | 1090 (≈ 3530 µM) | 5.64 | – | 6.20 | – | 6.20 | 5.54 | 319.5 to 321 °C (dec.) | –
CCCCOc1cccc(-c2cn(C3CC(CN)C3)c3ncnc(N)c23)c1 (stereo not drawn) [Compound 7, 7-(3-Aminomethylcyclobutyl)-5-(3-butoxyphenyl)-7H-pyrrolo[2,3-d]pyrimidin-4-ylamine] | 1120 (≈ 3070 µM) | 5.92 | – | 5.04 | 6.04 | – | – | – | –

Continued, values first:

solubility at 24 h [1] [µg/mL] | pIC50 [2] | pIC50 [3] | pIC50 [4] | pIC50 [5] | pIC50 [6] | pIC50 [7] | melting point | pIC50 [8] | SMILES
– | 5.12 | 5.85 | 5.74 | – | 6.15 | 5.77 | 101 to 102 °C | – | NCC1CC(n2cc(-c3cccc(F)c3)c3c(N)ncnc32)C1 (stereo not drawn) [Compound 6, 7-(3-aminomethylcyclobutyl)-5-(3-fluorophenyl)-7H-pyrrolo[2,3-d]pyrimidin-4-ylamine]
> 1000 | – | 4.55 | – | – | – | – | – | 5.00 | CS(=O)(=O)c1cccc(-c2cn(C3CC(CN)C3)c3ncnc(N)c23)c1 (stereo not drawn) [Compound 11, 7-(3-Aminomethylcyclobutyl)-5-(3-methanesulfonyl-phenyl)-7H-pyrrolo[2,3-d]pyrimidin-4-ylamine]
– | 5.64 | 5.48 | 6.20 | 5.82 | 6.20 | – | – | 5.04 | NCC1CC(n2cc(-c3ccc(N)cc3)c3c(N)ncnc32)C1 (stereo not drawn) [Compound 24]
– | 5.85 | – | 7.21 | 6.31 | – | 5.30 | – | 5.39 | NCC1CC(n2cc(-c3ccc4c(ccn4Cc4ccccc4)c3)c3c(N)ncnc32)C1 (stereo not drawn) [Compound 56]
5 (≈ 11.3 µM) | – | – | – | – | – | – | – | – | CC(=O)NCC1CC(n2cc(-c3cccc(OCc4ccccc4)c3)c3c(N)ncnc32)C1 (stereo not drawn) [N-{3-[4-Amino-5-(3-benzyloxyphenyl)pyrrolo[2,3-d]pyrimidin-7-yl]cyclobutylmethyl}acetamide, reference compound]
< 1 | – | – | – | – | – | – | – | – | Nc1ncnc2c1c(-c1cccc(OCc3ccccc3)c1)cn2C1CC(CNC(=O)N2CCCCC2)C1 (stereo not drawn) [Piperidine-1-carboxylic acid {3-[4-amino-5-(3-benzyloxy-phenyl)pyrrolo[2,3-d]pyrimidin-7-yl]cyclo-butylmethyl}amide, reference compound]
